The subject of one assay is EPG cells. Kind of assay: MTT viability assay, gastric cancer cells. It counts as cell-based, human. Particulars: for SI, EPG: CC50 CCD 841 CoTr / CC50 EPG; for CC50: Homo sapiens, MTT, 24 h, read-out: CC50 ± SD, EPG. The method, then:
The cytotoxic effects of ten newly synthesized N-Mannich bases were assessed on the normal human intestinal epithelium (CCD 841 CoTr) and cancer cell lines: gastric cancer (EPG) and four colorectal cancer lines (Caco-2, LoVo, LoVo/Dx, and HT-29). Cell viability was evaluated using the MTT assay in accordance with Annex C of ISO 10993-5 [33].
The biological activity of the newly synthesized compounds was assessed in the context of anticancer activity. For this purpose, several gastrointestinal cancer lines were selected: gastric cancer (EPG 257, which belongs to the collection of the Laboratory of Cell Culture and Advanced Therapy at the University of Environmental and Life Sciences in Wrocław), and four colorectal cancer cell lines (LoVo, Caco-2, and HT-29) were obtained from the European Collection of Authenticated Cell Cultures (ECACC) and were delivered by Sigma-Aldrich, a certified distributor for the biobank. Additionally, LoVo cells were used to develop a doxorubicin-resistant subline, referred to as LoVo/Dx. Resistance was induced through gradual adaptation to increasing concentrations of doxorubicin, starting from 0.1 µg/mL and incrementally raised to 0.8 µg/mL. After reaching the maximum concentration, the cells were maintained in a medium containing 0.4 µg/mL doxorubicin for a period of three months to stabilize the resistant phenotype. […] The resulting LoVo/Dx subline, resistant to doxorubicin, was cultured in DMEM/F-12 medium and utilized in assays evaluating the effectiveness of novel compounds against multidrug-resistant cancer cells. […] The non-cancerous cell control was normal colonic epithelial cells (CCD 841 CoTr from American Type Culture Collection, (ATCC, Manassas, VA, USA)). Cell cultures were performed under standard conditions (5% CO2, 95% humidity, and 37 °C). Each cell line was cultured in the recommended medium: (1) HT-29 in McCoy’s 5a, (2) Caco-2 in Minimal Essential Medium (MEM, Biological Industries, Beit Haemek, Israel), (3) CCD 841 CoTr in Dulbecco’s Modified Eagle Medium (DMEM, Biological Industries, Beit Haemek, Israel), (4) LoVo in Dulbecco’s Modified Eagle Medium/F-12 (DMEM/F-12; Biological Industries, Beit Haemek, Israel), (5) LoVo/Dx in DMEM/F-12, and (6) EPG in DMEM. Culture media were supplemented with 10% fetal bovine serum (FBS, Sigma-Aldrich, Darmstadt, Germany) and antibiotics (penicillin and streptomycin; Sigma-Aldrich, Darmstadt, Germany). For assays, trypsinized (TrypLE solution, Thermo Fisher Scientific, Waltham, MA, USA) cells were seeded at appropriate densities of 10,000 cells per well for MTT and determination of apoptotic and necrotic cell numbers; 30,000 cells per well for the rhodamine accumulation assay; and 500,000 cells per well for ELISA tests.
The cytotoxicity of the compounds and drugs used as controls was assessed using the MTT assay. The assay also included a DMSO control. After seeding and allowing the cells to adhere overnight, they were treated with the tested compounds and drugs for another 24 h. After this time, the supernatant was removed, and a 1 mg/mL MTT solution was added for 2 h in 5% CO2, 95% humidity, at 37 °C. The supernatant was then removed, and isopropanol was added to dissolve the purple crystals over 30 min by shaking. Absorbance was measured at 570 nm in a Multiskan GO microplate reader (Thermo Fisher Scientific; Waltham, MA, USA). All reagents used for the assays were purchased from Sigma-Aldrich, Darmstadt, Germany.
Biological assays were performed in three independent replicates, each involving four samples. ELISA determinations were repeated three times.
A general note: Formazan colour is commonly taken as a measure of viable cells.

The test system of another assay is HT-29 cells. Kind of assay: Annexin-V/propidium iodide apoptosis and necrosis detection. It is filed as cell-based, human. The conditions noted are these: HT-29, 1 µM, 24 h. The method, then:
To evaluate the impact of new compounds on apoptosis induction, an annexin-V/propidium iodide staining assay was conducted on HT-29 cells, with doxorubicin serving as the positive control (Figure 4). The tested compounds 5 and 6, at a concentration of 1 µM, increased the number of cells in the apoptosis phase, although to a lesser extent than doxorubicin.
The assessment of cell death—apoptosis was performed after 24 h of incubation of HT-29 cells with a concentration of 1 µM of compounds 5 and 6 and doxorubicin. Fluorescein-conjugated annexin V in PBS with Mg^2+ and Ca^2+ ions (Thermo Fisher Scientific, Waltham, MA, USA) was then used. To ensure that all cells (both live and dead) were counted, 10 µM Hoechst (Sigma-Aldrich, Darmstadt, Germany) was added to stain cell nuclei. The culture was then incubated for 20 min at 37 °C. Apoptosis analysis was performed under a fluorescence microscope (EVOS FL, Thermo Fisher Scientific, Waltham, MA, USA), using 10× magnification, in triplicate for each compound. The open-source ImageJ platform with the Fiji plugin [57] was used to analyze the number of all cells, as well as those in the apoptotic and necrotic phases.
The fluorescence signal was interpreted as follows: green fluorescence indicated apoptotic cells (annexin V staining), red fluorescence corresponded to necrotic cells, and blue fluorescence (Hoechst staining) marked all cell nuclei.

For another assay, the system named is p53. The assay can be described thus: p53 Human ELISA on HT-29 cell lysates. It is filed as cell-based. Particulars: HT-29, 1 µM, 24 h. How it is done:
To check the effect of compound 6 on the level of p-53 and caspase-3 protein, another test was performed on HT-29 cells, taking doxorubicin as the reference drug.
To assess the level of caspase-3 and p53 protein, HT-29 cell lysates were used after 24 h of incubation with compounds 5 and 6. The supernatant was collected in the prepared and labeled tubes, the cells from the wells were scraped, and the wells were washed with cold PBS, which was also collected. The tubes were then centrifuged, the supernatant was removed, and the cell pellet was lysed in a cell extraction vessel for 30 min on ice, with […] every 10 min. The lysate was transferred to centrifuge tubes and centrifuged at 13,000 rpm for 10 min at 4 °C. The supernatant was transferred to clean tubes in a microcentrifuge.
The following kits were used: Human Caspase-3 (active) ELISA Kit (KHO1091) and p53 Human ELISA Kit (BMS256), used following the manufacturer’s instructions. ELISA kits were purchased from Thermo Fisher Scientific (Waltham, MA, USA). The absorbance was measured using a Multiskan GO microplate reader (Thermo Fisher Scientific, Waltham, MA, USA) at wavelengths specific to each kit, as recommended by the manufacturer.
For orientation: ELISA stands for enzyme-linked immunosorbent assay.

The subject of a further assay is interleukin-1β. The assay can be described thus: IL-1β ELISA in HT-29 supernatant. It counts as cell-based, human. The conditions noted are these: HT-29, 1 µM. An excerpt:
The different effects of the anticancer compound on IL-6 and IL-1β can be explained by the different regulatory mechanisms of these cytokines and the distinct signaling pathways targeted by the therapy. The reduction in IL-6 levels may be due to the direct action of the compound on pathways promoting this cytokine or its ability to inhibit inflammatory processes specific to IL-6. In contrast, the increase in IL-1β levels might result from the inflammatory response to cellular stress or apoptosis induced by the therapy, leading to activation of the immune system and increased production of IL-1β.
Cytokine levels (IL-1β and IL-6) in the supernatant were measured for HT-29 and EPG cells treated with compounds 5 and 6, according to the instructions provided by the manufacturer of the ELISA kits were purchased from Abcam (Cambridge, UK). The absorbance was measured using a Multiskan GO microplate reader (Thermo Fisher Scientific, Waltham, MA, USA) at wavelengths specific to each kit, as recommended by the manufacturer.

For orientation: CC50 means the concentration at which the toxic effect on the cells reaches its halfway point. In the case of `Cc1ccc(N2CCN(Cn3nc(CNC(=O)c4c(C)cc(C)nc4S)n(-c4ccccc4)c3=S)CC2)cc1` [Compound 6], in the assay on EPG cells, the “SI, EPG” value is on record as 6.72 and the cytotoxic concentration (CC50) is 57.7 ± 5.4 µM. For the same molecule, the “Increase in apoptotic cells compared to untreated cells” value with HT-29 cells is listed as ~5 fold. For the same molecule, in the assay with p53, the “p53 Conc. ± SD” value amounted to 3.50 ± 0.07 U/mL. In the assay on interleukin-1β, the “IL-1β Conc. ± SD” value is 0.51 ± 0.11 pg/mL.

For `Cc1cc(C)c(C(=O)NCc2nn(CN3CCN(c4cccc(Cl)c4)CC3)c(=S)n2-c2ccccc2)c(S)n1` [Compound 5, 4,6-dimethyl-N-[(4-phenyl-5-thioxo-2-{[4-(3-chlorophenyl)piperazinyl]methyl}-4,5-dihydro-1H-1,2,4-triazol-3-yl)methyl]-2-sulfanylpyridine-3-carboxamide], in the assay on EPG cells, the “SI, EPG” value was determined as 2.66 and the half-maximal cytotoxic concentration (CC50) came to 83 ± 4.6 µM. Moreover, in the assay on HT-29 cells, the “Increase in apoptotic cells compared to untreated cells” value was > 3.5 fold and the “Number of necrotic cells” value is “significant rise”.

These data come from PMC12294558, “New 1,2,4-Triazole Derivatives with a N-Mannich Base Structure Based on a 4,6-Dimethylpyridine Scaffold as Anticancer Agents: Design, Synthesis, Biological Evaluation, and Molecular Modeling” (International Journal of Molecular Sciences, 2025).
